Reference: patent US20260217701A1, “SELECTIVE BET INHIBITORS AND USES THEREOF” (Tay Therapeutics Limited, priority 2022, published 2026)
Several values for one entry are separate records, joined by “and”; a condition that tells them apart may be missing. Identical values can stand only once.

Test system: collagen-induced arthritis
Assay: Collagen-induced arthritis (CIA) model: clinical scores and paw volume
Format: in vivo, Lewis rats
Details: for Overall Clinical Score: individual animals 1-8; for Animal paw volume percent change (%): individual animals
[1] = Day 12, CIA + Compound A 10 mg/kg
[2] = Day 13, L paw, group 5 CIA + Compound A 1 mg/kg
[3] = Day 13, L paw, group 6 CIA + Compound A 3 mg/kg
[4] = Day 13, L paw, group 7 CIA + Compound A 10 mg/kg
[5] = Day 13, R paw, group 5 CIA + Compound A 1 mg/kg
[6] = Day 13, R paw, group 6 CIA + Compound A 3 mg/kg
[7] = Day 13, R paw, group 7 CIA + Compound A 10 mg/kg
[8] = Day 13, CIA + Compound A 1 mg/kg
[9] = Day 13, CIA + Compound A 3 mg/kg
[10] = Day 13, CIA + Compound A 10 mg/kg
[11] = Day 14, L paw, group 5 CIA + Compound A 1 mg/kg
[12] = Day 14, L paw, group 6 CIA + Compound A 3 mg/kg
[13] = Day 14, L paw, group 7 CIA + Compound A 10 mg/kg
[14] = Day 14, R paw, group 5 CIA + Compound A 1 mg/kg
[15] = Day 14, R paw, group 6 CIA + Compound A 3 mg/kg
[16] = Day 14, R paw, group 7 CIA + Compound A 10 mg/kg
[17] = Day 14, CIA + Compound A 1 mg/kg
[18] = Day 14, CIA + Compound A 3 mg/kg
[19] = Day 14, CIA + Compound A 10 mg/kg
[20] = Day 15, L paw, group 5 CIA + Compound A 1 mg/kg
[21] = Day 15, L paw, group 6 CIA + Compound A 3 mg/kg
[22] = Day 15, L paw, group 7 CIA + Compound A 10 mg/kg
[23] = Day 15, R paw, group 5 CIA + Compound A 1 mg/kg
[24] = Day 15, R paw, group 6 CIA + Compound A 3 mg/kg
[25] = Day 15, R paw, group 7 CIA + Compound A 10 mg/kg
[26] = Day 15, CIA + Compound A 1 mg/kg
[27] = Day 15, CIA + Compound A 3 mg/kg

Cn1cc(-c2ccccc2)c(-c2cn(C)c(=O)c3[nH]c(-c4cnn(C(F)(F)F)c4)cc23)cc1=O [Compound A, 6-methyl-4-(1-methyl-2-oxo-5-phenyl-1,2-dihydropyridin-4-yl)-2-(1-(trifluoromethyl)-1H-pyrazol-4-yl)-1,6-dihydro-7H-pyrrolo[2,3-c]pyridin-7-one]
Average detailed clinical score, left forelimb [1]: 0.00
Average detailed clinical score, left hind limb [1]: 0.00
Average detailed clinical score, right forelimb [1]: 0.00
Average detailed clinical score, right hind limb [1]: 0.13
Average detailed clinical score, score [1]: 0.13
Average overall clinical score [1]: 0
Average animal paw volume [2]: 1.42 mL
Average animal paw volume percent change (%) [2]: 7.45%
Average animal paw volume [3]: 1.40 mL
Average animal paw volume percent change (%) [3]: 6.55%
Average animal paw volume [4]: 1.41 mL
Average animal paw volume percent change (%) [4]: 7.21%
Average animal paw volume [5]: 1.43 mL
Average animal paw volume percent change (%) [5]: 7.62%
Average animal paw volume [6]: 1.40 mL
Average animal paw volume percent change (%) [6]: 6.26%
Average animal paw volume [7]: 1.41 mL
Average animal paw volume percent change (%) [7]: 7.41%
Average detailed clinical score, left forelimb [8]: 0
Average detailed clinical score, left hind limb [8]: 0
Average detailed clinical score, right forelimb [8]: 0
Average detailed clinical score, right hind limb [8]: 0
Average detailed clinical score, score [8]: 0
Average overall clinical score [8]: 0
Overall Clinical Score (Day 13, CIA + Compound A 1 mg/kg, 1 mg/kg): 0 (6×) and 2 and 1
Average detailed clinical score, left forelimb [9]: 0
Average detailed clinical score, left hind limb [9]: 0
Average detailed clinical score, right forelimb [9]: 0
Average detailed clinical score, right hind limb [9]: 0
Average detailed clinical score, score [9]: 0
Average overall clinical score [9]: 0
Overall Clinical Score (Day 13, CIA + Compound A 3 mg/kg, 3 mg/kg): 0
Average detailed clinical score, left forelimb [10]: 0
Average detailed clinical score, left hind limb [10]: 0.125
Average detailed clinical score, right forelimb [10]: 0.125
Average detailed clinical score, right hind limb [10]: 0.25
Average detailed clinical score, score [10]: 0.5
Average overall clinical score [10]: 1
Average animal paw volume [11]: 1.53 mL
Average animal paw volume percent change (%) [11]: 15.36%
Average animal paw volume [12]: 1.44 mL
Average animal paw volume percent change (%) [12]: 9.64%
Average animal paw volume [13]: 1.44 mL
Average animal paw volume percent change (%) [13]: 9.68%
Average animal paw volume [14]: 1.49 mL
Average animal paw volume percent change (%) [14]: 11.73%
Average animal paw volume [15]: 1.45 mL
Average animal paw volume percent change (%) [15]: 10.16%
Average animal paw volume [16]: 1.44 mL
Average animal paw volume percent change (%) [16]: 9.90%
Average detailed clinical score, left forelimb [17]: 0
Average detailed clinical score, left hind limb [17]: 1
Average detailed clinical score, right forelimb [17]: 0
Average detailed clinical score, right hind limb [17]: 0
Average detailed clinical score, score [17]: 1
Average overall clinical score [17]: 1
Overall Clinical Score (Day 14, CIA + Compound A 1 mg/kg, 1 mg/kg): 0 (3×) and 2 (2×) and 1 (3×)
Average detailed clinical score, left forelimb [18]: 0
Average detailed clinical score, left hind limb [18]: 0
Average detailed clinical score, right forelimb [18]: 0
Average detailed clinical score, right hind limb [18]: 0
Average detailed clinical score, score [18]: 1
Average overall clinical score [18]: 1
Overall Clinical Score (Day 14, CIA + Compound A 3 mg/kg, 3 mg/kg): 0
Average detailed clinical score, left forelimb [19]: 0
Average detailed clinical score, left hind limb [19]: 0.25
Average detailed clinical score, right forelimb [19]: 0
Average detailed clinical score, right hind limb [19]: 0.375
Average detailed clinical score, score [19]: 0.625
Average overall clinical score [19]: 1
Average animal paw volume [20]: 1.64 mL
Average animal paw volume percent change (%) [20]: 24.11%
Average animal paw volume [21]: 1.54 mL
Average animal paw volume percent change (%) [21]: 16.70%
Average animal paw volume [22]: 1.54 mL
Average animal paw volume percent change (%) [22]: 16.95%
Animal paw volume percent change (%) (Day 15, L paw, group 5 CIA + Compound A 1 mg/kg, 1 mg/kg): 10.73% and 42.25% and 30.26% and 23.40% and 10.86% and 24.91% and 44.53%
Animal paw volume percent change (%) (Day 15, L paw, group 6 CIA + Compound A 3 mg/kg, 3 mg/kg): 12.93% and 23.35% and 12.17% and 8.79% and 18.01% and 25.47%
Average animal paw volume [23]: 1.58 mL
Average animal paw volume percent change (%) [23]: 19.02%
Average animal paw volume [24]: 1.51 mL
Average animal paw volume percent change (%) [24]: 14.88%
Average animal paw volume [25]: 1.50 mL
Average animal paw volume percent change (%) [25]: 14.23%
Animal paw volume percent change (%) (Day 15, R paw, group 5 CIA + Compound A 1 mg/kg, 1 mg/kg): 8.43% and 39.77% and 13.09% and 24.15% and 10.33% and 30.42% and 20.00%
Animal paw volume percent change (%) (Day 15, R paw, group 6 CIA + Compound A 3 mg/kg, 3 mg/kg): 4.53% and 9.73% and 9.81% and 5.20% and 34.75% and 17.23%
Average detailed clinical score, left forelimb [26]: 0
Average detailed clinical score, left hind limb [26]: 1
Average detailed clinical score, right forelimb [26]: 0
Average detailed clinical score, right hind limb [26]: 1
Average detailed clinical score, score [26]: 2
Average overall clinical score [26]: 2
Overall Clinical Score (Day 15, CIA + Compound A 1 mg/kg, 1 mg/kg): 0 (3×) and 4 and 3 (3×) and 2
Average detailed clinical score, left forelimb [27]: 0
Average detailed clinical score, left hind limb [27]: 1
Average detailed clinical score, right forelimb [27]: 0
Average detailed clinical score, right hind limb [27]: 1
